Experiment [1] deals with T1, SLC45A4 (Homo sapiens, UniProt Q5BKX6).
T1 sequence (Q5BKX6 1-768): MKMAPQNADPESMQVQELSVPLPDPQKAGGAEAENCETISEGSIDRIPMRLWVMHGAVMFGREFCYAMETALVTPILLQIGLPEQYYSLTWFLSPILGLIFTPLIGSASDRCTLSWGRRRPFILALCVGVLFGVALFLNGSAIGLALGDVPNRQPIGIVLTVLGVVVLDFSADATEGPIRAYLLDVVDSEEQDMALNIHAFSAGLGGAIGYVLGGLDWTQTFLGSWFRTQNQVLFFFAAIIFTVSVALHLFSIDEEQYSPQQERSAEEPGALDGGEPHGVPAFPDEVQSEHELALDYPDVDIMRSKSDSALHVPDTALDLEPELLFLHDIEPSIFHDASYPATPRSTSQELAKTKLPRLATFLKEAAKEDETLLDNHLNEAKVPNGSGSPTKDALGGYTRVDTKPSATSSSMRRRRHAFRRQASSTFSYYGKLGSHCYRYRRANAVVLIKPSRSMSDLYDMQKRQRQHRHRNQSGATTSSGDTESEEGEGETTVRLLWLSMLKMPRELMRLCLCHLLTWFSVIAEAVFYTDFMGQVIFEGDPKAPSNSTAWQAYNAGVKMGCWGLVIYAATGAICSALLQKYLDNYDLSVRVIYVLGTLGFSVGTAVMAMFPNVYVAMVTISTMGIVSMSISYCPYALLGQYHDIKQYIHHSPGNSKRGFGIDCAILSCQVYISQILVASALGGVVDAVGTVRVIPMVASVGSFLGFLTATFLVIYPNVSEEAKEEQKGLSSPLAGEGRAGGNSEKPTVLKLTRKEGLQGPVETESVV
Put plainly: competition of […]-SPD uptake in Neuro-2A cells overexpressing SLC45A4; also nanoDSF on purified protein. Type of experiment: cell-based. Set-up: full-length human SLC45A4.

Experiment [2] addresses T1, SLC45A4. Put plainly: […]-SPD uptake and homologous competition in Neuro-2A cells overexpressing SLC45A4; also nanoDSF destabilization of purified protein in detergent and nanodiscs. In kind it is cell-based. Set-up: full-length human SLC45A4.
The target in experiment [3] is T1, SLC45A4. Put plainly: cell-based.

The term IC50 denotes the midpoint of a concentration-inhibition curve. Read a low IC50 as higher potency. In the case of `NCCCCCN` [Cad, cadaverine], the 50% inhibitory concentration (IC50) on SLC45A4 [1] came out at 67 µM.

Consider `NCCCCN` [Put, putrescine], for which, at SLC45A4 [1], the IC50 was determined as 74 µM.

On SLC45A4 [2], `NCCCCNCCCN` [SPD, spermidine] had a 50% inhibitory concentration (IC50) of 123 µM.

With `NCCCNCCCCNCCCN` [Spm, spermine], inhibition on SLC45A4 [3] was half-maximal at 240 µM (IC50).
